Results from PubChem BioAssay (NCI).
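1) Cells in 96-well plates. 2) Compound, 48 h, 5 concentrations. 3) Linear interpolation between surrounding doses. 4) Unreached endpoint = highest concentration. At the GI50, growth is halved. TGI: concentration producing complete growth inhibition.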

Experiments:
Experiment in all cases: DTP human tumour cell line panel, 48 h
SK-OV-3 ovarian = tested on: SK-OV-3 ovarian
SW-620 colon = tested on: SW-620 colon
OVCAR-5 ovarian = tested on: OVCAR-5 ovarian
SNB-75 CNS = tested on: SNB-75 CNS
CCRF-CEM leukemia = tested on: CCRF-CEM leukemia
HL-60(TB) leukemia = tested on: HL-60(TB) leukemia
IGROV1 ovarian = tested on: IGROV1 ovarian
DU-145 prostate = tested on: DU-145 prostate
OVCAR-4 ovarian = tested on: OVCAR-4 ovarian
OVCAR-8 ovarian = tested on: OVCAR-8 ovarian

| Structure (SMILES) | GI50 (SK-OV-3 ovarian) | TGI (SK-OV-3 ovarian) | GI50 (SW-620 colon) | TGI (SW-620 colon) | GI50 (OVCAR-5 ovarian) | TGI (OVCAR-5 ovarian) | GI50 (SNB-75 CNS) | TGI (SNB-75 CNS) | GI50 (CCRF-CEM leukemia) | TGI (CCRF-CEM leukemia) | GI50 (HL-60(TB) leukemia) | TGI (HL-60(TB) leukemia) | GI50 (IGROV1 ovarian) | TGI (IGROV1 ovarian) | GI50 (DU-145 prostate) | TGI (DU-145 prostate) | GI50 (OVCAR-4 ovarian) | TGI (OVCAR-4 ovarian) | TGI (OVCAR-8 ovarian) |
| --- | --- | --- | --- | --- | --- | --- | --- | --- | --- | --- | --- | --- | --- | --- | --- | --- | --- | --- | --- |
| CN1CCN(Cn2nc(-c3cc(F)c(Cl)cc3Cl)oc2=S)CC1 | 56.9 µM | > 100 µM | 20 µM | 39.4 µM | > 100 µM | > 100 µM | 53.3 µM | > 100 µM | 33.4 µM | > 100 µM | 78.5 µM | > 100 µM | 37.1 µM | > 100 µM | 41.4 µM | > 100 µM | 30.9 µM | > 100 µM | – |
| COc1cccc2c1C(=O)c1c(O)c3c(c(O)c1C2=O)CC(O)(C(C)=O)CC3O (stereo not given) | – | 36.9 µM | – | 32.7 µM | – | 24.1 µM | – | 32.4 µM | – | 23.2 µM | – | 26.5 µM | – | 29.7 µM | – | – | – | 19.6 µM | 10.6 µM |
| CN1C(=O)[C@@H]2[C@@H]3c4ccccc4N[C@@H]3c3[nH]c4ccccc4c3[C@@H]2C1=O | – | 66.7 µM | – | > 100 µM | – | 64.2 µM | – | 85.8 µM | – | 46.5 µM | – | – | – | 26.9 µM | – | > 100 µM | – | 54.3 µM | 63.1 µM |
| O=c1[nH]c(-c2ccc(Cl)cc2)cc2ccsc12 | – | 77.9 µM | – | > 100 µM | – | > 100 µM | – | 23.2 µM | – | – | – | > 100 µM | – | > 100 µM | – | 6.68 µM | – | > 100 µM | > 100 µM |
